# Measured values as given in ChEMBL document CHEMBL3875147 (Eur J Med Chem, 2016).
# Assays:
# [1] = system: Staphylococcus epidermidis; assay: Antibacterial activity against Staphylococcus epidermidis ATCC 35984 incubated for 18 to 24 hrs by micro-dilution method; format: functional; conditions: RP62A
# [2] = Hemolytic activity in human RBC at 100 uM measured after 1 hr by UV-vis absorbance method relative to control; format: ADME, cell-based, Erythrocyte; conditions: red blood cells (RBC), read-out: Activity
# [3] = system: Escherichia coli; assay: Antibacterial activity against Escherichia coli ATCC 25922 incubated for 18 to 24 hrs by micro-dilution method; format: functional
# [4] = system: Pseudomonas aeruginosa; assay: Antibacterial activity against Pseudomonas aeruginosa ATCC 27853 incubated for 18 to 24 hrs by micro-dilution method; format: functional
# [5] = system: Plesiomonas shigelloides; assay: Antibacterial activity against Plesiomonas shigelloides ATCC 14029 incubated for 18 to 24 hrs by micro-dilution method; format: functional
# [6] = system: Enterococcus faecalis; assay: Antibacterial activity against clinical isolate of Enterococcus faecalis incubated for 18 to 24 hrs by micro-dilution method; format: functional
# [7] = system: Salmonella typhimurium; assay: Antibacterial activity against clinical isolate of Salmonella typhimurium incubated for 18 to 24 hrs by micro-dilution method; format: functional, Salmonella enterica subsp. enterica serovar Typhimurium; conditions: Salmonella enterica
# [8] = system: Salmonella typhi; assay: Antibacterial activity against clinical isolate of Salmonella typhi incubated for 18 to 24 hrs by micro-dilution method; format: functional, Salmonella enterica subsp. enterica serovar Typhi; conditions: Salmonella enterica
# [9] = system: Pseudomonas aeruginosa; assay: Antibacterial activity against clinical isolate of Pseudomonas aeruginosa incubated for 18 to 24 hrs by micro-dilution method; format: functional
# [10] = Antibacterial activity against Aeromonas hydrophila ATCC 7966 incubated for 18 to 24 hrs by micro-dilution method; format: functional, Aeromonas hydrophila subsp. hydrophila ATCC 7966
# [11] = system: Staphylococcus aureus; assay: Antibacterial activity against Staphylococcus aureus ATCC 25923 incubated for 18 to 24 hrs by micro-dilution method; format: functional
# [12] = system: Sphingomonas paucimobilis; assay: Antibacterial activity against Sphingomonas paucimobilis MTCC 6362 incubated for 18 to 24 hrs by micro-dilution method; format: functional
# [13] = system: Enterococcus faecalis; assay: Potency index, ratio of MIC for ciprofloxacin to MIC for test compound for antibacterial activity against clinical isolate of Enterococcus faecalis; format: functional
# [14] = system: Staphylococcus aureus; assay: Potency index, ratio of MIC for ciprofloxacin to MIC for test compound for antibacterial activity against Staphylococcus aureus ATCC 25923; format: functional
# [15] = system: Staphylococcus epidermidis; assay: Potency index, ratio of MIC for ciprofloxacin to MIC for test compound for antibacterial activity against Staphylococcus epidermidis ATCC 35984; format: functional, RP62A
# [16] = system: Escherichia coli; assay: Potency index, ratio of MIC for ciprofloxacin to MIC for test compound for antibacterial activity against Escherichia coli ATCC 25922; format: functional
# [17] = system: Plesiomonas shigelloides; assay: Potency index, ratio of MIC for ciprofloxacin to MIC for test compound for antibacterial activity against Plesiomonas shigelloides ATCC 14029; format: functional
SMILES,MIC [1] [µM],"hemolysis at 1 h, 100 µM [2] [%]",MIC [3] [µM],MIC [4] [µM],MIC [5] [µM],MIC [6] [µM],MIC [7] [µM],MIC [8] [µM],MIC [9] [µM],MIC [10] [µM],MIC [11] [µM],MIC [12] [µM],Ratio [13],Ratio [14],Ratio [15],Ratio [16],Ratio [17]
O=C(OCc1cn(-c2ccc(F)cc2F)nn1)c1cn(C2CC2)c2cc(N3CCN(Cc4cn(-c5ccc(F)cc5F)nn4)CC3)c(F)cc2c1=O,8.71,9.5,8.71,8.71,69.7,17.4,34.8,4.35,17.4,69.7,4.35,34.8,–,–,–,–,–
Cc1ccc(-n2cc(COC(=O)c3cn(C4CC4)c4cc(N5CCN(Cc6cn(-c7ccc(C)cc7Cl)nn6)CC5)c(F)cc4c3=O)nn2)c(Cl)c1,8.42,5.85,67.3,16.8,33.7,33.7,67.3,> 135,16.8,67.3,4.21,67.3,–,–,–,–,–
O=C(OCc1cn(-c2ccc(OC(F)(F)F)cc2)nn1)c1cn(C2CC2)c2cc(N3CCN(Cc4cn(-c5ccc(OC(F)(F)F)cc5)nn4)CC3)c(F)cc2c1=O,1.92,9.75,3.84,3.84,15.4,0.96,3.84,30.7,15.4,3.84,3.84,15.4,19,–,–,–,–
CCc1ccc(-n2cc(COC(=O)c3cn(C4CC4)c4cc(N5CCN(Cc6cn(-c7ccc(CC)cc7)nn6)CC5)c(F)cc4c3=O)nn2)cc1,71.2,6.81,> 142,> 142,4.45,142,8.91,142,> 142,> 142,142,> 142,–,–,–,–,–
O=C(OCc1cn(-c2cccc(Cl)c2Cl)nn1)c1cn(C2CC2)c2cc(N3CCN(Cc4cn(-c5cccc(Cl)c5Cl)nn4)CC3)c(F)cc2c1=O,3.99,6.58,7.98,7.98,7.98,15.9,15.9,31.9,15.9,31.9,3.99,15.9,–,–,–,–,–
O=C(OCc1cn(-c2ccc(Br)cc2)nn1)c1cn(C2CC2)c2cc(N3CCN(Cc4cn(-c5ccc(Br)cc5)nn4)CC3)c(F)cc2c1=O,3.89,1.46,7.78,15.6,3.89,15.6,15.6,7.78,15.6,31.1,1.94,15.6,–,–,–,–,–
C#CCOC(=O)c1cn(C2CC2)c2cc(N3CCN(CC#C)CC3)c(F)cc2c1=O,1.92,4.57,1.92,7.67,1.92,30.7,7.67,30.7,15.3,61.4,1.92,30.7,–,5 - 10,5 - 10,5 - 10,5 - 10
O=C(OCc1cn(-c2ccc(Cl)cc2)nn1)c1cn(C2CC2)c2cc(N3CCN(Cc4cn(-c5ccc(Cl)cc5)nn4)CC3)c(F)cc2c1=O,35,4.73,4.37,4.37,8.75,2.19,4.37,–,8.75,35,2.19,35,–,–,–,–,–
O=C(OCc1cn(-c2ccc(Cl)cc2Cl)nn1)c1cn(C2CC2)c2cc(N3CCN(Cc4cn(-c5ccc(Cl)cc5Cl)nn4)CC3)c(F)cc2c1=O,3.99,18.2,> 128,15.9,7.98,15.9,15.9,7.98,7.98,7.98,3.99,15.9,–,–,–,–,–
Cc1cc(C)cc(-n2cc(COC(=O)c3cn(C4CC4)c4cc(N5CCN(Cc6cn(-c7cc(C)cc(C)c7)nn6)CC5)c(F)cc4c3=O)nn2)c1,142,8.79,142,> 142,8.91,> 142,> 142,> 142,> 142,> 142,71.2,> 142,–,–,–,–,–
O=C(OCc1cn(-c2cccc(Cl)c2)nn1)c1cn(C2CC2)c2cc(N3CCN(Cc4cn(-c5cccc(Cl)c5)nn4)CC3)c(F)cc2c1=O,1.09,24.2,1.09,17.5,1.09,8.75,17.5,140,35,35,1.09,17.5,–,8 - 17,8 - 17,8 - 17,8 - 17
CC(=O)c1ccc(-n2cc(COC(=O)c3cn(C4CC4)c4cc(N5CCN(Cc6cn(-c7ccc(C(C)=O)cc7)nn6)CC5)c(F)cc4c3=O)nn2)cc1,2.14,8.05,2.14,4.28,2.14,4.28,8.56,–,8.56,8.56,2.14,17.1,–,–,–,–,–
O=C(OCc1cn(-c2ccc(F)c(Cl)c2)nn1)c1cn(C2CC2)c2cc(N3CCN(Cc4cn(-c5ccc(F)c(Cl)c5)nn4)CC3)c(F)cc2c1=O,8.33,5.36,8.33,16.6,4.16,16.6,16.6,–,16.6,33.3,8.33,16.6,–,–,–,–,–
O=C(OCc1cn(-c2ccc([N+](=O)[O-])cc2)nn1)c1cn(C2CC2)c2cc(N3CCN(Cc4cn(-c5ccc([N+](=O)[O-])cc5)nn4)CC3)c(F)cc2c1=O,1.06,5.61,4.25,8.5,4.25,8.5,17,–,17,17,4.25,17,–,–,–,–,–
COc1ccccc1-n1cc(COC(=O)c2cn(C3CC3)c3cc(N4CCN(Cc5cn(-c6ccccc6OC)nn5)CC4)c(F)cc3c2=O)nn1,35.4,7.65,8.86,17.7,4.43,35.4,4.43,35.4,35.4,70.8,35.4,4.43,–,–,–,–,–
CCCCCc1ccc(-n2cc(COC(=O)c3cn(C4CC4)c4cc(N5CCN(Cc6cn(-c7ccc(CCCCC)cc7)nn6)CC5)c(F)cc4c3=O)nn2)cc1,127,5.32,> 127,> 127,63.6,> 127,> 127,> 127,31.8,> 127,63.6,> 127,–,–,–,–,–
O=C(OCc1cn(-c2ccccc2Cl)nn1)c1cn(C2CC2)c2cc(N3CCN(Cc4cn(-c5ccccc5Cl)nn4)CC3)c(F)cc2c1=O,1.09,5.85,2.19,8.75,2.19,35,17.5,140,35,35,8.75,35,–,–,–,–,–
O=C(OCc1cn(-c2ccccc2)nn1)c1cn(C2CC2)c2cc(N3CCN(Cc4cn(-c5ccccc5)nn4)CC3)c(F)cc2c1=O,38.7,4.65,> 155,> 155,9.68,> 155,> 155,> 155,> 155,> 155,38.7,> 155,–,–,–,–,–
O=C(OCc1cn(-c2ccc(F)cc2Cl)nn1)c1cn(C2CC2)c2cc(N3CCN(Cc4cn(-c5ccc(F)cc5Cl)nn4)CC3)c(F)cc2c1=O,4.16,29.8,16.6,16.6,33.3,16.6,33.3,–,16.6,66.6,2.08,33.3,–,–,–,–,–
O=C(O)c1cn(C2CC2)c2cc(N3CCNCC3)c(F)cc2c1=O [CIPROFLOXACIN],9.43,5.23,–,–,9.43,–,–,–,–,–,–,–,–,–,–,–,–
